Earlier results on one molecule are cited in US8530463B2, “Multimodal particulate formulations” (Hale Biopharma Ventures LLC, priority 2007, dated 2013).

Take `Cc1ncc2n1-c1ccc(Cl)cc1C(c1ccccc1F)=NC2` [Midazolam, 8-chloro-6-(2-fluorophenyl)-1-methyl-4H-imidazo[1,5-a]benzodiazepine]: the “solubility in most aqueous solutions” value (neutral pH (e.g. about 6 to 8)) is listed as “relatively insoluble”. For the setting “pH lower than about 4”, the solubility in water entry was “soluble”.
